From patent US6355799B1, “Substituted benzene compounds, process for their preparation, and herbicidal and defoliant compositions containing them” (ISK Americas Incorporated, priority 1997, dated 2002)

Assays:
Format in all cases: in vivo
[1] = test system: ivyleaf morningglory (Ipomoea hederacea, IPOHE); test: Post-emerge test, greenhouse herbicide activity screening; conditions: post-emerge, 14 days after application, rating scale 0-100
Summary of the method: (§1)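 Plants grown in 10 cm pots of sandy loam mix received acetone-dissolved compounds through a moving flat-fan nozzle. Doses ranged from 15 to 1000 g ai/ha. Pre-emerge pots were seeded one day earlier, post-emerge pots 8–21 days earlier. Fourteen days on, each pot was graded 0–100 for damage.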

[2] = test system: velvetleaf (Abutilon theophrasti, ABUTH); test: as above; conditions: post-emerge, 14 days after application, rating scale 0-100
Summary of the method: as §1

[3] = test system: redroot pigweed (Amaranthus retroflexus, AMARE); test: as above; conditions: post-emerge, 14 days after application
Summary of the method: as §1

[4] = test system: green foxtail (Setaria viridis, SETVI); test: as above; conditions: post-emerge, 14 days after application, rating scale 0-100
Summary of the method: as §1

[5] = test system: lambsquarters (Chenopodium album, CHEAL); test: as above; conditions: post-emerge, 14 days after application, rating scale 0-100
Summary of the method: as §1

[6] = test system: sicklepod (Cassia obtusifolia, CASOB); test: as above; conditions: post-emerge, 14 days after application, rating scale 0-100
Summary of the method: as §1

[7] = test system: johnsongrass (Sorghum halepense, SORHA); test: as above; conditions: post-emerge, 14 days after application, rating scale 0-100
Summary of the method: as §1

[8] = test system: barnyardgrass (Echinochloa crus-galli, ECHCG); test: as above; conditions: post-emerge, 14 days after application, rating scale 0-100
Summary of the method: as §1

[9] = test system: large crabgrass (Digitaria sanguinalis, DIGSA); test: as above; conditions: post-emerge, 14 days after application, rating scale 0-100
Summary of the method: as §1

[10] = test system: ivyleaf morningglory (Ipomoea hederacea, IPOHE); test: Pre-emerge test, greenhouse herbicide activity screening; conditions: Ipomoea, pre-emergence, 336 h, phytotoxicity rating 0-100, 14 days after application, read-out: Pre-emerge Herbicidal Activity IPOHE; for pest or weed control at 63 g/ha: 63 g ai/ha; for pest or weed control at 250 g/ha: 250 g ai/ha
Summary of the method: as §1

[11] = test system: sicklepod (Cassia obtusifolia, CASOB); test: as above; conditions: Senna obtusifolia, pre-emergence, 336 h, phytotoxicity rating 0-100, 14 days after application, read-out: Pre-emerge Herbicidal Activity CASOB; for pest or weed control at 63 g/ha: 63 g ai/ha; for pest or weed control at 250 g/ha: 250 g ai/ha
Summary of the method: as §1

[12] = test system: barnyardgrass (Echinochloa crus-galli, ECHCG); test: as above; conditions: Echinochloa crus-galli, pre-emergence, 336 h, phytotoxicity rating 0-100, 14 days after application, read-out: Pre-emerge Herbicidal Activity ECHCG; for pest or weed control at 63 g/ha: 63 g ai/ha; for pest or weed control at 250 g/ha: 250 g ai/ha
Summary of the method: as §1

[13] = test system: large crabgrass (Digitaria sanguinalis, DIGSA); test: as above; conditions: Digitaria sanguinalis, pre-emergence, 336 h, phytotoxicity rating 0-100, 14 days after application, read-out: Pre-emerge Herbicidal Activity DIGSA; for pest or weed control at 63 g/ha: 63 g ai/ha; for pest or weed control at 250 g/ha: 250 g ai/ha
Summary of the method: as §1

[14] = 63 g ai/ha, rating scale 0-100 (0 no damage, 100 complete death)
[15] = 250 g ai/ha, rating scale 0-100

COc1c(Cl)cc(F)c(-n2c(=O)cc(C(F)(F)F)n(C)c2=O)c1NC(N)=O [Compound 3-26, 3-(2-aminocarbonylamino-4-chloro-6-fluoro-3-methoxyphenyl)-1-methyl-6-trifluoromethyl-2,4(1H, 3H)-pyrimidinedione]
phytotoxicity rating IPOHE ([1]; 63 g ai/ha): 60 | phytotoxicity rating IPOHE ([1]; 250 g ai/ha): 90 | phytotoxicity rating ABUTH ([2]; 63 g ai/ha): 60 | phytotoxicity rating ABUTH ([2]; 250 g ai/ha): 60 | phytotoxicity rating AMARE [3, 14]: 50 | phytotoxicity rating AMARE [3, 15]: 65 | phytotoxicity rating SETVI ([4]; 63 g ai/ha): 0 | phytotoxicity rating SETVI ([4]; 250 g ai/ha): 0 | phytotoxicity rating CHEAL ([5]; 63 g ai/ha): 50 | phytotoxicity rating CHEAL ([5]; 250 g ai/ha): 60 | phytotoxicity rating CASOB ([6]; 63 g ai/ha): 20 | phytotoxicity rating CASOB ([6]; 250 g ai/ha): 60 | phytotoxicity rating SORHA ([7]; 63 g ai/ha): 0 | phytotoxicity rating SORHA ([7]; 250 g ai/ha): 0 | phytotoxicity rating ECHCG ([8]; 63 g ai/ha): 0 | phytotoxicity rating ECHCG ([8]; 250 g ai/ha): 0 | phytotoxicity rating DIGSA ([9]; 63 g ai/ha): 0 | phytotoxicity rating DIGSA ([9]; 250 g ai/ha): 0 | pest or weed control at 63 g/ha [10]: 50% | pest or weed control at 250 g/ha [10]: 100% | pest or weed control at 63 g/ha [11]: 40% | pest or weed control at 250 g/ha [11]: 90% | pest or weed control at 63 g/ha [12]: 0% | pest or weed control at 250 g/ha [12]: 30% | pest or weed control at 63 g/ha [13]: 0% | pest or weed control at 250 g/ha [13]: 80%

COC(=O)Nc1c(OC)c(Cl)cc(F)c1-n1c(=O)cc(C(F)(F)F)n(C)c1=O [Compound 4-1, 3-(4chloro-6-fluoro-3-methoxy-2-methoxycarbonylaminophenyl)-1-methyl-6-trifluoromethyl-2,4(1H, 3H)-pyrimidinedione]
phytotoxicity rating IPOHE ([1]; 63 g ai/ha): 100 | phytotoxicity rating IPOHE ([1]; 250 g ai/ha): 100 | phytotoxicity rating ABUTH ([2]; 63 g ai/ha): 100 | phytotoxicity rating ABUTH ([2]; 250 g ai/ha): 100 | phytotoxicity rating AMARE [3, 14]: 50 | phytotoxicity rating AMARE [3, 15]: 95 | phytotoxicity rating SETVI ([4]; 63 g ai/ha): 0 | phytotoxicity rating SETVI ([4]; 250 g ai/ha): 10 | phytotoxicity rating CHEAL ([5]; 63 g ai/ha): 60 | phytotoxicity rating CHEAL ([5]; 250 g ai/ha): 98 | phytotoxicity rating CASOB ([6]; 63 g ai/ha): 30 | phytotoxicity rating CASOB ([6]; 250 g ai/ha): 50 | phytotoxicity rating SORHA ([7]; 63 g ai/ha): 0 | phytotoxicity rating SORHA ([7]; 250 g ai/ha): 20 | phytotoxicity rating ECHCG ([8]; 63 g ai/ha): 0 | phytotoxicity rating ECHCG ([8]; 250 g ai/ha): 0 | phytotoxicity rating DIGSA ([9]; 63 g ai/ha): 0 | phytotoxicity rating DIGSA ([9]; 250 g ai/ha): 0 | pest or weed control at 63 g/ha [10]: 100% | pest or weed control at 250 g/ha [10]: 100% | pest or weed control at 63 g/ha [11]: 95% | pest or weed control at 250 g/ha [11]: 100% | pest or weed control at 63 g/ha [12]: 10% | pest or weed control at 250 g/ha [12]: 100% | pest or weed control at 63 g/ha [13]: 60% | pest or weed control at 250 g/ha [13]: 100%
